The values below come from PubChem BioAssay (NCI).

In general, TGI refers to the concentration at which net growth stops. Low values mean more potent growth arrest, high ones less potent growth arrest.

Structures are written as SMILES.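 Protocol summary: plate cells (96-well), add compound at 5 concentrations, incubate 48 h, interpolate endpoints linearly. At the TGI there is no net growth.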 Where only a bound is given, the exact number is not on record here.

Among the test systems are HS 578T breast; SW-620 colon; EKVX NSCLC; MCF7 breast; SF-539 CNS; CAKI-1 renal; K-562 leukemia; CCRF-CEM leukemia; SNB-75 CNS; NCI-H460 lung; SNB-19 CNS.
What all share (test): DTP human tumour cell line panel, 48 h

On to `Cc1ccc(Nc2nc(NNC(=O)Cc3ccccc3)nc(NNC(=O)c3ccncc3)n2)cc1`, for which the TGI in the experiment with HS 578T breast, with SW-620 colon, with EKVX NSCLC, in the experiment with MCF7 breast, in the experiment with SF-539 CNS and in the experiment with CAKI-1 renal was above 10 µM each time. The TGI in the experiment with K-562 leukemia, in the experiment on CCRF-CEM leukemia, in the experiment on SNB-75 CNS and with NCI-H460 lung was above 10 µM throughout.
Regarding `Oc1ccc(NCn2c(=S)sc3ccccc32)cc1`, the TGI in the experiment with HS 578T breast, in the experiment with SNB-19 CNS, in the experiment on SW-620 colon, with EKVX NSCLC, in the experiment on MCF7 breast and with SF-539 CNS was above 100 µM each time. The TGI in the experiment on CAKI-1 renal was above 100 µM; with K-562 leukemia, above 100 µM; in the experiment with CCRF-CEM leukemia it was 92 µM; in the experiment with SNB-75 CNS, above 100 µM; in the experiment with NCI-H460 lung, above 100 µM.
In the case of `COc1ccc(C(C)NNC(=O)c2ccncc2)cc1OC` (stereo unspecified), the TGI in the experiment on HS 578T breast, in the experiment with SNB-19 CNS, in the experiment on SW-620 colon, in the experiment with EKVX NSCLC, with MCF7 breast and with SF-539 CNS was above 100 µM throughout. For the same compound, the total growth inhibition concentration (TGI) with CAKI-1 renal, with K-562 leukemia, in the experiment with CCRF-CEM leukemia, in the experiment on SNB-75 CNS and in the experiment on NCI-H460 lung was above 100 µM in each case.
Take `CCOC(=O)c1cn2c(n1)sc1cc(F)ccc12`: the TGI in the experiment with HS 578T breast, in the experiment on SNB-19 CNS, in the experiment with SW-620 colon, in the experiment on EKVX NSCLC, in the experiment with MCF7 breast and with SF-539 CNS was above 100 µM each time. In addition, the TGI with CAKI-1 renal, in the experiment with K-562 leukemia, in the experiment on CCRF-CEM leukemia, with SNB-75 CNS and with NCI-H460 lung was above 100 µM throughout.
Regarding `Cc1nn(C(=O)Cc2ccccc2)c2c1C(c1ccccc1)SC(N)=N2` (stereo unspecified), the TGI in the experiment on HS 578T breast, in the experiment on SNB-19 CNS, in the experiment with SW-620 colon, in the experiment with EKVX NSCLC, in the experiment on MCF7 breast and with SF-539 CNS was above 100 µM throughout. Besides, the concentration for total growth inhibition (TGI) in the experiment on CAKI-1 renal, in the experiment on K-562 leukemia, in the experiment with CCRF-CEM leukemia, in the experiment with SNB-75 CNS and with NCI-H460 lung was above 100 µM in each case.
As to `COc1ccc(C2=CC(C(C)=C(C(N)=O)C(N)=O)C=C(c3ccc(Br)cc3)C2)c(OC)c1` (stereo unspecified), the TGI in the experiment on HS 578T breast, in the experiment with SNB-19 CNS, in the experiment with SW-620 colon, in the experiment on EKVX NSCLC, in the experiment with MCF7 breast and with CAKI-1 renal was above 100 µM in each case. The concentration for total growth inhibition (TGI) in the experiment on K-562 leukemia, with CCRF-CEM leukemia, in the experiment on SNB-75 CNS and in the experiment with NCI-H460 lung was above 100 µM in each case.
For the compound `CCOC(=O)c1nnn(CCCCO)c1C(=O)OCC`, the TGI in the experiment on HS 578T breast was above 100 µM; in the experiment with SNB-19 CNS it was 84.5 µM; in the experiment with SW-620 colon, above 100 µM; with EKVX NSCLC it was above 100 µM; in the experiment on MCF7 breast, above 100 µM; in the experiment with SF-539 CNS, above 100 µM. Further, the TGI in the experiment with CAKI-1 renal, in the experiment with CCRF-CEM leukemia, in the experiment on SNB-75 CNS and in the experiment on NCI-H460 lung was above 100 µM each time.
As for `N=c1oc2ccccc2cc1C(=O)NC12CC3CC(CC(C3)C1)C2`, the TGI was above 100 µM in the experiment on HS 578T breast; 80.5 µM in the experiment on SNB-19 CNS; above 100 µM with SW-620 colon; above 82.8 µM in the experiment with EKVX NSCLC; 18.3 µM with MCF7 breast; 42 µM with SF-539 CNS. Also, the concentration for total growth inhibition (TGI) in the experiment with K-562 leukemia was 72.1 µM; with CCRF-CEM leukemia it was 17.2 µM; with SNB-75 CNS it was 71.3 µM; in the experiment on NCI-H460 lung, 31.4 µM.
With `CON(C)C(=O)C(C)N(Cc1ccccc1)Cc1ccccc1` (stereo unspecified), the total growth inhibition concentration (TGI) with HS 578T breast, in the experiment with SNB-19 CNS, in the experiment on SW-620 colon, with EKVX NSCLC, in the experiment on MCF7 breast and in the experiment with SF-539 CNS was above 100 µM each time. The concentration for total growth inhibition (TGI) with K-562 leukemia, in the experiment on CCRF-CEM leukemia, with SNB-75 CNS and in the experiment on NCI-H460 lung was above 100 µM each time.
For `N#Cc1nc(-c2cnccn2)oc1N`, the total growth inhibition concentration (TGI) in the experiment with HS 578T breast, in the experiment with SNB-19 CNS, in the experiment with SW-620 colon, in the experiment on EKVX NSCLC, in the experiment with MCF7 breast and with CAKI-1 renal was above 100 µM in each case. Moreover, the concentration for total growth inhibition (TGI) in the experiment on K-562 leukemia, with CCRF-CEM leukemia and in the experiment on SNB-75 CNS was above 100 µM in each case.
On to `COc1ccc(NC(=S)c2ccc(CN3CCCCC3)s2)cc1`, for which the concentration for total growth inhibition (TGI) in the experiment on HS 578T breast is 43.8 µM; with SNB-19 CNS it was 43.9 µM; with SW-620 colon, 42.4 µM; in the experiment with EKVX NSCLC, 41.3 µM; in the experiment with MCF7 breast, 33.3 µM; with SF-539 CNS, above 100 µM. The TGI is 77.3 µM with CAKI-1 renal, 42.1 µM in the experiment on K-562 leukemia, 34.5 µM in the experiment with CCRF-CEM leukemia and 37.4 µM with NCI-H460 lung.
On to `Nc1ncc2c(n1)-c1ccccc1OC2N1CCCCC1` (stereo unspecified), for which the TGI in the experiment with HS 578T breast, with SNB-19 CNS, in the experiment on SW-620 colon, in the experiment on EKVX NSCLC, in the experiment with MCF7 breast and with SF-539 CNS was above 100 µM in each case. For the same compound, the total growth inhibition concentration (TGI) in the experiment on CAKI-1 renal, in the experiment on CCRF-CEM leukemia, in the experiment on SNB-75 CNS and in the experiment on NCI-H460 lung was above 100 µM each time.
Take `Cc1ccc(S[C@@H](C)[C@@](O)(CF)CN(Cc2ccccc2)C(=O)C(F)(F)F)cc1`: the total growth inhibition concentration (TGI) in the experiment with HS 578T breast was 61.7 µM; in the experiment with SNB-19 CNS, 55 µM; with SW-620 colon it was 75.2 µM; in the experiment on EKVX NSCLC, 64.9 µM; with MCF7 breast, 58.2 µM; with CAKI-1 renal it was 99.7 µM. Also, the TGI in the experiment on CCRF-CEM leukemia is above 100 µM; in the experiment on NCI-H460 lung it was 36.9 µM.
